Reference: patent publication US20190151351A1, “REGULATORS OF ANAPLASTIC LYMPHOMA KINASE AND USES THEREOF” (Celldex Therapeutics, Inc., priority 2014, published 2019)
Values belong to the molecule of their own block, whether it stands above or below them.

Columns and labels:
ALK [1] = assay: SOS inhibition of heparin-induced phosphorylation in NB1 neuroblastoma cells; type: cell-based; conditions: SOS 0-10 mg/mL along with 10 μg/mL heparin
Description: FIG. 4: Heparin induced activation of ALK is inhibited by sucrose-octasulfate (SOS).
NB1 neuroblastoma cells were treated with increasing doses of SOS (0, 0.001, 0.01, 0.1, 1, and 10 mg/mL) along with 10 μg/mL of heparin.

[2] = target: FL-ECD binding to heparin; assay: SPR competition: inhibition of FL-ECD binding to heparin surface
Description: FIG. 8: Sucrose octasulfate (SOS) inhibits ALK binding to heparin in a dose-dependent manner, as measured by SPR. A titration of SOS was pre-incubated with 350 nM of FL-ECD. These complexes were then injected over the heparin surface.
These complexes were then injected over the heparin surface. […] In addition, the IC50 and inhibition constant values indicate a high degree of specificity for the interaction between heparin and ALK.
A BIACORE™ T100 instrument was used at 25° C. using 25 mM Hepes, 300 mM NaCl, 10% Glycerol, pH 7.4. All reagents were dialyzed with this buffer prior to use. Heparin-biotin (Sigma) sold as ≥97% pure was further purified using PD-10 pre-packed columns (GE-Healthcare) to remove free biotin in solution. Heparin-biotin was then immobilized on an assembled NeutrAvidin surface (amine coupled on a CM4 Series-S Biacore chip): three surfaces were produced with different concentrations of immobilized heparin by varying contact time from 48 to 240 s, and excess ligand was removed. Due to the heterogeneous nature of heparins, the surface was a combination of many chain lengths of heparin. Three-fold dilutions of FL-ECD and ΔN-ECD were injected sequentially over a reference surface without heparin and three heparin surfaces. The surface was regenerated between cycles with 2.5 M NaCl, 5 mM Acetic Acid, pH 4.5. For the SOS competition assay, serial dilutions of SOS were pre-incubated with 0.350 μM FL-ECD and then injected over the chip. Data were analyzed using the BiaCore T100 software.

ALK [3] = assay: Western blot of ALK and AKT phosphorylation in NB1 neuroblastoma cells (heparin dose response, other glycosaminoglycans); type: cell-based; conditions: heparin 0-100 μg/mL, other glycosaminoglycans at 10 μg/mL
Description: NB1 neuroblastoma cells were treated with increasing doses of heparin (0, 0.001, 0.01, 0.1, 1, 10, 100 μg/mL heparin), and phosphorylation of ALK and AKT was monitored by Western blot analysis. Various glycosaminoglycans at 10 μg/mL were also assessed for their ability to activate ALK. An ALK-agonistic mAb was used as a positive control for pALK and pAKT.

ALK [4] = assay: Western blot of ALK and MAPK phosphorylation in NB1 neuroblastoma cells; type: cell-based; conditions: heparin 10 μg/mL
Description: FIG. 2: Heparin, but neither PTN or MK, induces ALK tyrosine phosphorylation. […] An agonistic anti-ALK monoclonal antibody was used as a positive control for activation of ALK and MAPK.
NB1 neuroblastoma cells were treated with heparin (Hep), pleiotrophin (PTN), and midkine (MK) to determine the influence of each on ALK phosphorylation. […] An agonistic anti-ALK monoclonal antibody was used as a positive control for activation of ALK and MAPK.
Target sequence in this assay (Q9UM73 19-222 limits assumed): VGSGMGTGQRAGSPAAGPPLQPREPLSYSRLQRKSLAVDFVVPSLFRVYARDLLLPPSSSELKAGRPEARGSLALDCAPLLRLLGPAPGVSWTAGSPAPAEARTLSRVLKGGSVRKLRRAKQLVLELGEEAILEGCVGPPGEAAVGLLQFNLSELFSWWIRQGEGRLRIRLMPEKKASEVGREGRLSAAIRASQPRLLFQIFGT

Ki ([2]; SPR SOS competition with 350 nM FL-ECD, read-out: inhibition constant (Ki)): 2250 nM
IC50 ([2]; SPR, SOS pre-incubated with 350 nM FL-ECD, Rmax values): 6500 nM
Kd ([2]; calculated using the Cheng-Prusoff equation, read-out: KD for SOS/FL-ECD binding): 2250 nM
Molecule: O=S(=O)(O)OC[C@H]1O[C@@](COS(=O)(=O)O)(O[C@H]2O[C@H](COS(=O)(=O)O)[C@@H](OS(=O)(=O)O)[C@H](OS(=O)(=O)O)[C@H]2OS(=O)(=O)O)[C@@H](OS(=O)(=O)O)[C@@H]1OS(=O)(=O)O [SOS, Sucrose-octasulfate]
inhibition of heparin-induced phosphorylation of ALK, AKT and MAPK (ALK [1]): capable of inhibiting heparin-induced phosphorylation of ALK, AKT, and MAPK in a dose dependent manner

Molecule: Dextran sulfate
phosphorylation of ALK and AKT (ALK [3]): induce phosphorylation of ALK and AKT

B1: MK: secreted protein Midkine, proposed as physiological ALK ligand (protein)
chain: VAKKKDKVKKGGPGSECAEWAWGPCTPSSKDCGVGFREGTCGAQTQRIRCRVPCNWKKEFGADCKYKFENWGACDGGTGTKVRQGTLKKARYNAQCQETIRVTKPCTPKTKAKAKAKKGKGKD
ALK (tyrosine) phosphorylation (ALK [4]): neither PTN nor MK influence ALK phosphorylation

B2: PTN: secreted protein Pleiotrophin, proposed as physiological ALK ligand (protein)
chain: GKKEKPEKKVKKSDCGEWQWSVCVPTSGDCGLGTREGTRTGAECKQTMKTQRCKIPCNWKKQFGAECKYQFQAWGECDLNTALKTRTGSLKRALHNAECQKTVTISKPCGKLTKPKPQAESKKKKKEGKKQEKMLD
ALK (tyrosine) phosphorylation (ALK [4]): neither PTN nor MK influence ALK phosphorylation
